The text below walks through data of patent US20260234157A1, “COMPOUND AND METHOD FOR TARGETED DEGRADATION OF ANDROGEN RECEPTOR” (Gan & Lee Pharmaceuticals Co., Ltd., priority 2023, published 2026).

Each structure is given as a SMILES string. Residue numbers refer to the chain shown, from its start.

The target in one experiment is T1, AR protein (Homo sapiens, UniProt P10275, T878A).
T1 construct: degradation activity of the compounds disclosed in the present disclosure on AR protein in LNCaP cells; host or cells: LNCaP FGC
T1 sequence (P10275 1-920 T878A): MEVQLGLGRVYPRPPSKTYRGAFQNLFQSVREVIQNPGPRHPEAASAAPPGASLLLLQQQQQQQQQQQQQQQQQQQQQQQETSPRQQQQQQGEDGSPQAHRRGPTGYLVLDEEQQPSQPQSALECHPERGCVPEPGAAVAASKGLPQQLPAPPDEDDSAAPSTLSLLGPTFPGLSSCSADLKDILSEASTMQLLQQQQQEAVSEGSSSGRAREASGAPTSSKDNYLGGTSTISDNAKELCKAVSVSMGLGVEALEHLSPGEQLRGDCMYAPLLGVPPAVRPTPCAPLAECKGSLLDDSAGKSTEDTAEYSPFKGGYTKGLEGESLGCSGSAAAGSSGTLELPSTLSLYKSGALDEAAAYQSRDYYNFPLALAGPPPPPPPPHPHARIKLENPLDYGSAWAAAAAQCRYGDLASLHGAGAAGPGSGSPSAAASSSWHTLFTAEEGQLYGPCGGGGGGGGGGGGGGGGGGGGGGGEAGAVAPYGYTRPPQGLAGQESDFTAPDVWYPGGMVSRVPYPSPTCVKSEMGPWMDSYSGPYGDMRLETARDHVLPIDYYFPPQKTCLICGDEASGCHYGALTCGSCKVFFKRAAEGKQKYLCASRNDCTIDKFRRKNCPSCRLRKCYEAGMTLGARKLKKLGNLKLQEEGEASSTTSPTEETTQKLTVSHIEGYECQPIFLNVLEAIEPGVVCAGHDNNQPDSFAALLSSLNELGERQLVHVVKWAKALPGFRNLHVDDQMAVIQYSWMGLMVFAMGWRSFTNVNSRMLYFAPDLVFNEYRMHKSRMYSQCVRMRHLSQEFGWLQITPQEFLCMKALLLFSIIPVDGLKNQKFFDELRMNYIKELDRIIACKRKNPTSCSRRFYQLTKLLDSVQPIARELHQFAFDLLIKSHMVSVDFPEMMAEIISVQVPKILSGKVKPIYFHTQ
As to the kind of experiment: Degradation of AR protein in LNCaP cells (Western blot). It counts as cell-based. To be noted: LNCaP, 8 h, read-out: Degradation rates of the AR protein in LNCaP cells, 10 nM (%). In short, it runs like this:
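Percent AR degradation was derived from GAPDH-normalised Western blot band intensities (infrared detection) in LNCaP lysates.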
Take `N#Cc1ccc(O[C@H]2CC[C@H](NC(=O)c3ccc(N4CC(N5CCC6(CCc7cc8c(cc7O6)C(=O)N(C6CCC(=O)NC6=O)C8=O)CC5)C4)nn3)CC2)cc1Cl` (stereo partly shown) [Compound 25]: the inhibition at 0.01 µM was 49%.
Turning to `N#Cc1ccc(O[C@H]2CC[C@H](NC(=O)c3ccc(N4CCC(N5CCC6(CCc7cc8c(cc7O6)C(=O)N(C6CCC(=O)NC6=O)C8=O)CC5)CC4)nn3)CC2)cc1Cl` (stereo partly shown) [Compound 26], the inhibition at 0.01 µM is 61%.

The same experiment, now with this note: LNCaP, 8 h, read-out: Degradation rates of the AR protein in LNCaP cells, 100 nM (%).
For `N#Cc1ccc(O[C@H]2CC[C@H](NC(=O)c3ccc(N4CC(N5CCC6(CCc7cc8c(cc7O6)C(=O)N(C6CCC(=O)NC6=O)C8=O)CC5)C4)nn3)CC2)cc1Cl` (stereo partly shown) [Compound 25], the inhibition at 0.1 µM turned out to be 43%.
As to `N#Cc1ccc(O[C@H]2CC[C@H](NC(=O)c3ccc(N4CCC(N5CCC6(CCc7cc8c(cc7O6)C(=O)N(C6CCC(=O)NC6=O)C8=O)CC5)CC4)nn3)CC2)cc1Cl` (stereo partly shown) [Compound 26], the inhibition at 0.1 µM came to 56%.

For the next experiment, the target named is T2, AR protein (Homo sapiens, UniProt P10275).
T2 construct: degradation activity of the compounds disclosed in the present disclosure on AR protein in VCaP cells; host or cells: VCaP
T2 sequence (P10275 1-920): T1 sequence (P10275 1-920 T878A) with A878T
Kind of experiment: Degradation of AR protein in VCaP cells (Western blot). It counts as cell-based. To be noted: compound at 10 nM, 8 hours. In short, it runs like this:
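Western blot readout: AR band grayscale normalised to GAPDH, used to derive degradation rate. Lysates came from VCaP cells exposed to compound for 8 h, with solvent controls run in parallel.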
On the technique in general: In western blotting, separated proteins are transferred to a membrane and probed.
As for `N#Cc1ccc(O[C@H]2CC[C@H](NC(=O)c3ccc(N4CCC(C(=O)N5CCC(N6CCC7(CC6)COc6c7ccc7c6CN(C6CCC(=O)NC6=O)C7=O)CC5)CC4)nn3)CC2)cc1Cl` (stereo partly shown) [Compound 161], the “Degradation rate of the AR protein in VCaP cells, 10 nM (%)” value is reported as 47%.

The experiment is the same for the next values; noted with them: compound at 10 nM, 8 hours, read-out: Degradation rate of the AR protein in VCaP cells, 10 nM (%).
Turning to `N#Cc1ccc(O[C@H]2CC[C@H](NC(=O)c3ccc(N4CC(N5CCC6(CCc7cc8c(cc7O6)C(=O)N(C6CCC(=O)NC6=O)C8=O)CC5)C4)nn3)CC2)cc1Cl` (stereo partly shown) [Compound 25], the inhibition at 0.01 µM amounted to 13%.
Take `N#Cc1ccc(O[C@H]2CC[C@H](NC(=O)c3ccc(N4CCC(N5CCC6(CCc7cc8c(cc7O6)C(=O)N(C6CCC(=O)NC6=O)C8=O)CC5)CC4)nn3)CC2)cc1Cl` (stereo partly shown) [Compound 26]: the inhibition at 0.01 µM stood at 48%.

Staying with this experiment, now noted: compound at 100 nM, 8 hours.
With `N#Cc1ccc(O[C@H]2CC[C@H](NC(=O)c3ccc(N4CCC(C(=O)N5CCC(N6CCC7(CC6)COc6c7ccc7c6CN(C6CCC(=O)NC6=O)C7=O)CC5)CC4)nn3)CC2)cc1Cl` (stereo partly shown) [Compound 161], the “Degradation rate of the AR protein in VCaP cells, 100 nM (%)” value was 84%.

The same experiment, now with this note: compound at 100 nM, 8 hours, read-out: Degradation rate of the AR protein in VCaP cells, 100 nM (%).
For the compound `N#Cc1ccc(O[C@H]2CC[C@H](NC(=O)c3ccc(N4CC(N5CCC6(CCc7cc8c(cc7O6)C(=O)N(C6CCC(=O)NC6=O)C8=O)CC5)C4)nn3)CC2)cc1Cl` (stereo partly shown) [Compound 25], the inhibition at 0.1 µM came out at 32%.
Consider `N#Cc1ccc(O[C@H]2CC[C@H](NC(=O)c3ccc(N4CCC(N5CCC6(CCc7cc8c(cc7O6)C(=O)N(C6CCC(=O)NC6=O)C8=O)CC5)CC4)nn3)CC2)cc1Cl` (stereo partly shown) [Compound 26], for which the inhibition at 0.1 µM was determined as 56%.

In another experiment the test system is LNCaP FGC cells. As to the kind of experiment: Inhibition of proliferation of LNCaP cells (WST-8). It counts as cell-based. Conditions: Homo sapiens, LNCaP, 96 h, LNCaP FGC cells, 96 hours, WST-8 absorbance at 450 nm; read-out: IC50 for inhibiting the proliferation of LNCaP cells. On the procedure: The cells were cultured in a cell culture incubator with 5% CO2 at 37° C. overnight. […] On the sixth day, 96 well plates were taken out, and 20 μL of WST-8 (Beytime, C0040) reagent was added to each well.
For orientation: Formazan colour is commonly taken as a measure of viable cells.
As for `N#Cc1ccc(O[C@H]2CC[C@H](NC(=O)c3ccc(N4CCC(C(=O)N5CCC(N6CCC7(CC6)COc6c7ccc7c6CN(C6CCC(=O)NC6=O)C7=O)CC5)CC4)nn3)CC2)cc1Cl` (stereo partly shown) [Compound 161], the IC50 was 440 nM.

Still in this experiment, the particulars now being: Homo sapiens, LNCaP, 96 h, read-out: IC50 for inhibiting the proliferation of LNCaP cells, LNCaP FGC cells, 96 hours, WST-8 absorbance at 450 nm.
With `N#Cc1ccc(O[C@H]2CC[C@H](NC(=O)c3ccc(N4CC(N5CCC6(CCc7cc8c(cc7O6)C(=O)N(C6CCC(=O)NC6=O)C8=O)CC5)C4)nn3)CC2)cc1Cl` (stereo partly shown) [Compound 25], the IC50 stood at 390 nM.
In the case of `N#Cc1ccc(O[C@H]2CC[C@H](NC(=O)c3ccc(N4CCC(N5CCC6(CCc7cc8c(cc7O6)C(=O)N(C6CCC(=O)NC6=O)C8=O)CC5)CC4)nn3)CC2)cc1Cl` (stereo partly shown) [Compound 26], the IC50 turned out to be 1200 nM.

The next experiment deals with VCaP cells. Kind of experiment: Inhibition of proliferation of VCaP cells (WST-8). It counts as cell-based. To be noted: Homo sapiens, VCaP, 168 h, read-out: IC50 for inhibiting the proliferation of VCaP cells. On the procedure:
The inhibitory activity of the compounds disclosed in the present disclosure on the proliferation of VCaP cells
On the first day of the experiment, […] were inoculated in 96 well plates at a density of 15000 cells per well using DMEM medium containing 10% fetal bovine serum, with 100 μL of cell suspension per well. The cells were cultured in a cell culture incubator with 5% CO2 at 37° C. overnight. […] On the ninth day, 96 well plates were taken out, and 20 μL of WST-8 (Beytime, C0040) reagent was added to each well.
Take `N#Cc1ccc(O[C@H]2CC[C@H](NC(=O)c3ccc(N4CC(N5CCC6(CCc7cc8c(cc7O6)C(=O)N(C6CCC(=O)NC6=O)C8=O)CC5)C4)nn3)CC2)cc1Cl` (stereo partly shown) [Compound 25]: the IC50 amounted to 910 nM.
On to `N#Cc1ccc(O[C@H]2CC[C@H](NC(=O)c3ccc(N4CCC(N5CCC6(CCc7cc8c(cc7O6)C(=O)N(C6CCC(=O)NC6=O)C8=O)CC5)CC4)nn3)CC2)cc1Cl` (stereo partly shown) [Compound 26], for which the IC50 came to 750 nM.

The experiment is the same for the next values; noted with them: Homo sapiens; VCaP cells, 168 hours, WST-8 absorbance at 450 nm; read-out: IC50 for inhibiting the proliferation of VCaP cells.
On to `N#Cc1ccc(O[C@H]2CC[C@H](NC(=O)c3ccc(N4CCC(C(=O)N5CCC(N6CCC7(CC6)COc6c7ccc7c6CN(C6CCC(=O)NC6=O)C7=O)CC5)CC4)nn3)CC2)cc1Cl` (stereo partly shown) [Compound 161], for which the IC50 was 3 nM.
